Consider three molecules from DBAASP.

Test systems include Escherichia coli K88; Escherichia coli UB1005; Escherichia coli 078; Escherichia coli ER2566; Staphylococcus aureus.
What all share (assay): ≥ marks a high value that may be exact or a test limit, other limits are often not marked, values filed in µg/mL are converted to µM
Test [1] deals with Streptococcus pneumoniae ATCC 49619.
Test [2] concerns Acinetobacter baumannii ATCC 17978D-5.
Test [3] relates to Pseudomonas aeruginosa ATCC 19660.
Test [4] has as its system Enterococcus faecium ATCC 700221.
Test [5] concerns Klebsiella aerogenes ATCC 13048.
In test [6] the test system is Staphylococcus epidermidis ATCC 51625.
In test [7] the test system is Pseudomonas aeruginosa ATCC 27853.
The subject of test [8] is Staphylococcus aureus ATCC 33591.
Test [9] concerns Pseudomonas aeruginosa ATCC 21630.
Test [10] deals with Escherichia coli ATCC 25922.
For test [11], the system named is Pseudomonas aeruginosa ATCC 10419.
Test [12] has as its system Staphylococcus aureus ATCC 29213.
The subject of test [13] is Salmonella enterica subsp. enterica serovar Typhimurium ATCC 14028.
The subject of test [14] is Staphylococcus aureus ATCC 25923.
The test system of test [15] is Salmonella enterica subsp. enterica serovar Typhimurium C77-31.
The test system of test [16] is Pseudomonas aeruginosa ATCC 21625.
For test [17], the system named is Enterococcus faecalis ATCC 29212.
Test [18] relates to Escherichia coli CVCC 1515.
Test [19] deals with Bacillus subtilis ATCC 11060.
In test [20] the test system is Escherichia coli CMCC 44102.
The subject of test [21] is Salmonella enterica subsp. enterica serovar Pullorum C79-13.
Test [22] has as its system Staphylococcus epidermidis ATCC 12228.
In test [23] the test system is Streptococcus mutans ATCC UA159.
Test [24] has as its system Candida albicans ATCC 5314.
Test [25] has as its system Streptococcus sanguinis ATCC 10556.

Converted amounts (≈) assume the structure as drawn. “And” between values parts separate entries of the source, which are not always exact repeats. Identical values can stand only once.

What is called MIC is the lowest concentration found to suppress growth.

As to `CC[C@H](C)[C@H](NC(=O)[C@H](CCCCN)NC(=O)[C@@H]1CCCN1C(=O)[C@@H]1CCCN1C(=O)[C@H](CC(C)C)NC(=O)[C@H](CCCCN)NC(=O)[C@@H]1CCCN1C(=O)[C@@H]1CCCN1C(=O)[C@H](Cc1ccccc1)NC(=O)[C@H](Cc1ccccc1)NC(=O)[C@@H]1CCCN1C(=O)[C@@H]1CCCN1C(=O)[C@@H]1CCCN1C(=O)[C@H](CCCCN)NC(=O)[C@@H]1CCCN1C(=O)[C@H](CCCCN)NC(=O)[C@@H]1CCCN1C(=O)[C@H](CC(C)C)NC(=O)[C@H](Cc1ccc(O)cc1)NC(=O)[C@@H]1CCCN1C(=O)[C@@H]1CCCN1C(=O)[C@H](CCCCN)NC(=O)[C@@H]1CCCN1C(=O)[C@H](CCCCN)NC(=O)[C@H](CCCCN)NC(=O)[C@@H](N)CCCCN)C(=O)O` [KKKPKPPYLPKPKPPPFFPPKLPPKI], the MIC in test [1], in test [2], in test [3], in [4], in [5] and in test [6] was 21.3 µM (≈ 64 µg/mL) in each case. The MIC was greater than 21.3 µM in test [7] and 21.3 µM (≈ 64 µg/mL) in test [8].

Consider `CC[C@H](C)[C@H](NC(=O)[C@H](CCCCN)NC(=O)[C@H](CCCCN)NC(=O)[C@H](CC(C)C)NC(=O)[C@H](CCCN=C(N)N)NC(=O)[C@H](Cc1c[nH]c2ccccc12)NC(=O)[C@H](CCCN=C(N)N)NC(=O)[C@@H](NC(=O)[C@H](CCCCN)NC(=O)[C@H](Cc1c[nH]c2ccccc12)NC(=O)[C@H](CCCN=C(N)N)NC(=O)[C@H](CC(C)C)NC(=O)[C@H](CCCN=C(N)N)NC(=O)[C@H](CCCN=C(N)N)NC(=O)[C@H](Cc1ccccc1)NC(=O)[C@@H](N)CCCN=C(N)N)[C@@H](C)O)C(=O)N[C@H]1CSSC[C@@H](C(=O)N[C@H](C(N)=O)C(C)C)NC(=O)[C@H](C(C)C)NC(=O)[C@@H]2CSSC[C@H](NC(=O)[C@H](Cc3ccc(O)cc3)NC1=O)C(=O)N[C@@H](CCCN=C(N)N)C(=O)N[C@@H](CCCN=C(N)N)C(=O)N[C@@H](CCCN=C(N)N)C(=O)N[C@@H](Cc1ccccc1)C(=O)N2` [RFRRLRWKTRWRLKKICYCRRRFCVCV], for which the MIC in [9] was 2.01 µM (≈ 7.39 µg/mL); in [10], 1 µM and 2.01 µM; in test [11] it was 4.01 µM (≈ 14.8 µg/mL); against Escherichia coli K88, 0.515 µM (≈ 1.9 µg/mL); in test [12], 2.01 µM (≈ 7.39 µg/mL); in test [13] it was 2.01 µM (≈ 7.39 µg/mL). Moreover, the MIC was determined as 8.02 µM (≈ 29.6 µg/mL) in test [14]; 4.01 µM (≈ 14.8 µg/mL) in test [15]; 4.01 µM (≈ 14.8 µg/mL) in [16]; 1 µM (≈ 3.69 µg/mL) in test [17]; 4.01 µM (≈ 14.8 µg/mL) in test [18]; 2.01 µM (≈ 7.39 µg/mL) in test [19]. For the same molecule, the MIC in test [20] amounted to 0.515 µM (≈ 1.9 µg/mL); in test [7], 4.01 µM (≈ 14.8 µg/mL); against Escherichia coli UB1005 it was 2.01 µM (≈ 7.39 µg/mL); in test [21], 4.01 µM (≈ 14.8 µg/mL); in test [22], 2.01 µM (≈ 7.39 µg/mL); against Escherichia coli 078, 4.01 µM (≈ 14.8 µg/mL). In addition, the MIC in the test with Escherichia coli ER2566 turned out to be 1 µM (≈ 3.69 µg/mL).

Regarding `CC[C@H](C)[C@H](NC(=O)[C@H](CCCCN)NC(=O)[C@H](CCCN=C(N)N)NC(=O)[C@@H](NC(=O)[C@@H](N)Cc1ccc(O)cc1)[C@@H](C)CC)C(=O)N[C@@H](CCCN=C(N)N)C(=O)N[C@@H](CCCN=C(N)N)C(=O)N[C@@H](Cc1ccccc1)C(=O)N[C@@H](Cc1ccccc1)C(=O)N[C@@H](CCCCN)C(=O)N[C@@H](CCCCN)C(=O)N[C@@H](CCCN=C(N)N)C(=O)N[C@@H](Cc1ccccc1)C(=O)N[C@@H](CCCCN)C(=O)N[C@@H](Cc1ccccc1)C(=O)N[C@@H](CCCN=C(N)N)C(=O)N[C@@H](CCCCN)C(=O)N[C@@H](CCCCN)C(N)=O` [YIRKIRRFFKKRFKFRKK], the MIC in test [23] was 6.28 µM (≈ 16 µg/mL); in [14] it was 25.1 µM (≈ 64 µg/mL); in test [24], 12.6 µM (≈ 32 µg/mL); in [25], 25.1 µM (≈ 64 µg/mL); against Staphylococcus aureus, 12.6 µM (≈ 32 µg/mL).
